Measured values as given in patent US9931320B2, “Parasiticidal oral veterinary compositions comprising systemically-acting active agents, methods and uses thereof” (MERIAL INC., priority 2012, dated 2018).

System: Trichuris vulpis (whipworm)
Experiment: Efficacy against Trichuris vulpis (whipworm) in dogs (Example 14)
Details: after 7 days; treated on Day 0; 0.5 mg/kg milbemycin oxime alone or with 2.5 mg/kg Compound A; naturally infected dogs

With milbemycin oxime the “Efficacy against T. vulpis (parasite counts)” value was > 94%.
